Measurements reported in patent US6838416B2, “Herbicidal 5-benzyloxymethyl-1,2-isoxazoline derivatives” (Korea Research Institute of Chemical Technology, priority 2000, dated 2005).

Key:
ORYSA 2-leaf stage = assay: Assay for herbicidal activity on the 2-leaf stage weeds and rice plants: rice 2-leaf stage; format: in vivo, Oryza sativa L.; conditions: applied at 2-leaf stage, 0 untreated control, 100 complete kill
Description: (§1) The vessels employed were plastic pots having an area of 140 cm^2 and filled with a sandy loam soil containing 1.2% organic matter (pH 6). Pregerminated seed of rice (ORYSA: Oryza sativa L.) and seed of ECHOR (Echinochloa crus-galli var oryzicola) were seeded on the soil surface, respectively. The pots were then watered at the depth of 3 cm just after seeding.
(§2) Seven days after seeding, the pregerminated seeds of rice were seeded on the soil face whilst the early seeded rice in the same pots and barnyard grass (ECHOR) grew up to the 2-leaf stage. Two days after, a solution of the compound of Example 8 and Tween-20 as a non-ionic emulsifier in 50% acetone, was diluted with water to a concentration of 0.016, 0.063, 0.25, 1 and 4.0 kg/ha, respectively and applied evenly to the test pots.
(§3) Three weeks after starting from the beginning, the application of the herbicide, the herbicidal activity on paddy weeds and the phytotoxicity to the paddy rice plant were visually rated by a percentage grading wherein 0 indicates as an untreated control and 100 indicates complete kill. The results are shown in the following

ORYSA seed = assay: Assay for herbicidal activity on the 2-leaf stage weeds and rice plants: rice seed; format: in vivo, Oryza sativa L.; conditions: applied two days after seeding pregerminated seeds, 0 untreated control, 100 complete kill
Description: as §1, §2, §3

CYPSE (tuber) = assay: Assay for herbicidal activity, paddy pots: CYPSE; format: in vivo, Cyperus serotinus ROTTB; conditions: three weeks after application, 0 untreated control, 100 complete kill
Source text: (§4) To evaluate herbicidal activity against the paddy weeds in the paddy rice (ORYSA: Oryza sativa L.), the herbicidal activity of the compounds of the invention was compared to that of the compound No.109 (compound A) disclosed in U.S. Pat. […] The paddy weeds tested were ECHOR (Echinochloa crus-galli var. oryzicola), SCPJU (Scirpus juncoides ROXB), MOOVA (Monochoria vaginalis […] (Cyperus serotinus ROTTB), and SAGPY (Sagittaria pygmaea MTQ). The vessels employed were plastic pots having an area of 140 cm^2 and filled with a sandy loam soil containing 1.2% organic matter (pH 6).

MOOVA (seed) = assay: Assay for herbicidal activity, paddy pots: MOOVA; format: in vivo, Monochoria vaginalis PRESL; conditions: three weeks after application, 0 untreated control, 100 complete kill
Source text: as §4

SAGPY (tuber) = assay: Assay for herbicidal activity, paddy pots: SAGPY; format: in vivo, Sagittaria pygmaea MTQ; conditions: three weeks after application, 0 untreated control, 100 complete kill
Source text: as §4

ECHOR (seed) = assay: Assay for herbicidal activity, paddy pots: ECHOR; format: in vivo, Echinochloa crus-galli var. oryzicola; conditions: three weeks after application, 0 untreated control, 100 complete kill
Source text: as §4

SCPJU (seed) = assay: Assay for herbicidal activity, paddy pots: SCPJU; format: in vivo, Scirpus juncoides ROXB; conditions: three weeks after application, 0 untreated control, 100 complete kill
Source text: as §4

ECHOR 2-leaf stage = assay: Assay for herbicidal activity on the 2-leaf stage weeds and rice plants: ECHOR 2-leaf stage; format: in vivo, Echinochloa crus-galli var oryzicola; conditions: applied at 2-leaf stage, 0 untreated control, 100 complete kill
Description: as §1, §2, §3

ORYSA (3-leaf stage) = assay: Assay for herbicidal activity, paddy pots: phytotoxicity to transplanted rice seedlings; format: in vivo, Oryza sativa L.; conditions: in vivo
Source text: as §4

ORYSA (seed) = assay: Assay for herbicidal activity, paddy pots: phytotoxicity to seeded (pregerminated) rice; format: in vivo, Oryza sativa L.; conditions: in vivo
Source text: as §4

SMILES | CYPSE (tuber) herbicidal activity, visual percentage grading (CYPSE (tuber); 0.016 kg/ha) | CYPSE (tuber) herbicidal activity, visual percentage grading (CYPSE (tuber); 0.063 kg/ha) | CYPSE (tuber) herbicidal activity, visual percentage grading (CYPSE (tuber); 0.250 kg/ha) | CYPSE (tuber) herbicidal activity, visual percentage grading (CYPSE (tuber); 1.000 kg/ha) | CYPSE (tuber) herbicidal activity, visual percentage grading (CYPSE (tuber); 4.000 kg/ha) | MOOVA (seed) herbicidal activity, visual percentage grading (MOOVA (seed); 0.016 kg/ha) | MOOVA (seed) herbicidal activity, visual percentage grading (MOOVA (seed); 0.063 kg/ha) | MOOVA (seed) herbicidal activity, visual percentage grading (MOOVA (seed); 0.250 kg/ha) | MOOVA (seed) herbicidal activity, visual percentage grading (MOOVA (seed); 1.000 kg/ha) | MOOVA (seed) herbicidal activity, visual percentage grading (MOOVA (seed); 4.000 kg/ha) | SAGPY (tuber) herbicidal activity, visual percentage grading (SAGPY (tuber); 0.016 kg/ha) | SAGPY (tuber) herbicidal activity, visual percentage grading (SAGPY (tuber); 0.063 kg/ha) | SAGPY (tuber) herbicidal activity, visual percentage grading (SAGPY (tuber); 0.250 kg/ha) | SAGPY (tuber) herbicidal activity, visual percentage grading (SAGPY (tuber); 1.000 kg/ha) | SAGPY (tuber) herbicidal activity, visual percentage grading (SAGPY (tuber); 4.000 kg/ha) | ECHOR (seed) herbicidal activity, visual percentage grading (ECHOR (seed); 0.016 kg/ha) | ECHOR (seed) herbicidal activity, visual percentage grading (ECHOR (seed); 0.063 kg/ha) | ECHOR (seed) herbicidal activity, visual percentage grading (ECHOR (seed); 0.250 kg/ha) | ECHOR (seed) herbicidal activity, visual percentage grading (ECHOR (seed); 1.000 kg/ha) | ECHOR (seed) herbicidal activity, visual percentage grading (ECHOR (seed); 4.000 kg/ha) | other results
Cc1ccsc1C1=NOC(C)(COCc2c(F)cccc2F)C1 (stereo not shown) [EXAMPLE 8, 5-(2,6-difluorobenzyl)oxymethyl-5-methyl-3-(4-methylthiophene-5-yl)-1,2-isoxazoline] | 0% | 50% | 90% | 100% | 100% | 50% | 90% | 90% | 100% | 100% | 0% | 0% | 0% | 50% | 80% | 50% | 100% | 100% | 100% | 100% | ORYSA 2-leaf stage phytotoxicity, visual percentage grading (ORYSA 2-leaf stage; 0.016 kg/ha): 0%; ORYSA 2-leaf stage phytotoxicity, visual percentage grading (ORYSA 2-leaf stage; 0.063 kg/ha): 0%; ORYSA 2-leaf stage phytotoxicity, visual percentage grading (ORYSA 2-leaf stage; 0.250 kg/ha): 0%; ORYSA 2-leaf stage phytotoxicity, visual percentage grading (ORYSA 2-leaf stage; 1.000 kg/ha): 20%; ORYSA 2-leaf stage phytotoxicity, visual percentage grading (ORYSA 2-leaf stage; 4.000 kg/ha): 65%; ORYSA (seed) phytotoxicity, visual percentage grading (ORYSA seed; 0.016 kg/ha): 0%; ORYSA (seed) phytotoxicity, visual percentage grading (ORYSA seed; 0.063 kg/ha): 20%; ORYSA (seed) phytotoxicity, visual percentage grading (ORYSA seed; 0.250 kg/ha): 55%; ORYSA (seed) phytotoxicity, visual percentage grading (ORYSA seed; 1.000 kg/ha): 80%; ORYSA (seed) phytotoxicity, visual percentage grading (ORYSA seed; 4.000 kg/ha): 95%; SCPJU (seed) herbicidal activity, visual percentage grading (SCPJU (seed); 0.016 kg/ha): 0%; SCPJU (seed) herbicidal activity, visual percentage grading (SCPJU (seed); 0.063 kg/ha): 10%; SCPJU (seed) herbicidal activity, visual percentage grading (SCPJU (seed); 0.250 kg/ha): 10%; SCPJU (seed) herbicidal activity, visual percentage grading (SCPJU (seed); 1.000 kg/ha): 40%; SCPJU (seed) herbicidal activity, visual percentage grading (SCPJU (seed); 4.000 kg/ha): 100%; ECHOR 2-leaf stage herbicidal activity, visual percentage grading (ECHOR 2-leaf stage; 0.016 kg/ha): 45%; ECHOR 2-leaf stage herbicidal activity, visual percentage grading (ECHOR 2-leaf stage; 0.063 kg/ha): 95%; ECHOR 2-leaf stage herbicidal activity, visual percentage grading (ECHOR 2-leaf stage; 0.250 kg/ha): 100%; ECHOR 2-leaf stage herbicidal activity, visual percentage grading (ECHOR 2-leaf stage; 1.000 kg/ha): 100%; ECHOR 2-leaf stage herbicidal activity, visual percentage grading (ECHOR 2-leaf stage; 4.000 kg/ha): 100%
CC1(COCc2cccc(F)c2)CC(c2sccc2Br)=NO1 (stereo not shown) [EXAMPLE 18, 5-(3-fluorobenzyl)oxymethyl-5-methyl-3-(4-bromothiophene-5-yl)-1,2-isoxazoline] | 0% | 40% | 70% | 100% | 100% | 0% | 100% | 100% | 100% | 100% | 0% | 0% | 0% | 0% | 20% | 0% | 60% | 100% | 100% | 100% | ORYSA (3-leaf stage) phytotoxicity, visual percentage grading (ORYSA (3-leaf stage)): 0%; SCPJU (seed) herbicidal activity, visual percentage grading (SCPJU (seed); 0.016 kg/ha): 0%; SCPJU (seed) herbicidal activity, visual percentage grading (SCPJU (seed); 0.063 kg/ha): 10%; SCPJU (seed) herbicidal activity, visual percentage grading (SCPJU (seed); 0.250 kg/ha): 100%; SCPJU (seed) herbicidal activity, visual percentage grading (SCPJU (seed); 1.000 kg/ha): 100%; SCPJU (seed) herbicidal activity, visual percentage grading (SCPJU (seed); 4.000 kg/ha): 100%; ORYSA (seed) phytotoxicity, visual percentage grading (ORYSA (seed)): 100%
